Data as given in patent US20250360101A1, “OSTEOCLAST DIFFERENTIATION INHIBITOR CONTAINING UROLITHIN” (DAICEL CORPORATION, priority 2020, published 2025).

Tests used:
[1] = test system: macrophages prepared by differentiation from the isolated mouse bone marrow-derived hematopoietic stem cells; test: Osteoclast differentiation inhibition test (M-CSF/RANKL induction, TRAP staining) from macrophages; type: cell-based; conditions: 10 μM; 3 days culture; ratio of TRAP-stained area to sample-free group (Comparative Example 3 = 100%)
Method: (§1) In the present Examples, statistical analysis was carried out using commercially available software (StatMate3, ATMS). Except for Example 3 and Comparative Example 3, Tukey's test was used for comparison in terms of the action and effect. In all tests, a significant difference was assumed at a P value of not more than 0.1%. In Example 3 and Comparative Example 3, Dunnett's test was used for comparison in terms of the action and effect. A significant difference was assumed at a P-value of not more than 1%.
Mouse femurs and tibias were removed, and a portion of about 2 mm was removed from each bone end by cutting. The long bones were placed in a 0.2-mL microtube, and centrifuged at 2000×g, followed by collecting bone marrow fluid. […]
The macrophages prepared by differentiation from the isolated mouse bone marrow-derived hematopoietic stem cells were plated on a 96-well plate at 4.0×10^4 cells/well. […] The total number of multinucleated osteoclasts having three or more nuclei present on each well was counted. The stained image was scanned using a scanner (EPSON, GT-X970, 800 pixels/inch), and the stained area was measured using image analysis software Image J. […]
The ratio of the stained area in each sample-addition group (Example 3) to the stained area in the sample-free group (Comparative Example 3) was calculated to determine the number of osteoclasts (relative value). […]

[2] = test system: mouse bone marrow-derived hematopoietic stem cells; test: Osteoclast differentiation inhibition test (M-CSF/RANKL induction, TRAP staining) from hematopoietic stem cells; type: cell-based; conditions: for number of osteoclasts (relative value): 8 days culture, ratio of TRAP-stained area to sample-free group (Comparative Example = 100%); for Osteoclast differentiation (significance vs Comparative Example): Tukey's test, P not more than 0.1%
Method: as §1
Mouse femurs and tibias were removed, and a portion of about 2 mm was removed from each bone end by cutting. The long bones were placed in a 0.2-mL microtube, and centrifuged at 2000×g, followed by collecting bone marrow fluid. After suspending the bone marrow fluid in 4 ml of α-MEM medium (#. 11900-016, Gibco) supplemented with 10% FBS (JBS-011115), the resulting suspension was plated on a 6-cm dish. After incubating the plate at 37° C. under 5% CO2 for 24 hours, the medium was collected. The floating cells in the medium were isolated as hematopoietic stem cells.
The isolated mouse bone marrow-derived hematopoietic stem cells were plated on a 96-well plate at 4.0×10^4 cells/well. At the same time as the plating, 30 ng/ML M-CSF (macrophage-colony stimulating factor, R&D Systems) and 50 ng/mL RANKL (receptor activator of nuclear factor κ-B ligand, PeproTech Inc.) as inducers of differentiation into osteoclasts were added to all wells. Together with the differentiation inducers, urolithin A (1, 10, or 25 μM) was added. Culture was carried out by leaving the plate to stand in an incubator at 37° C. under 5% CO2 for 8 days. The medium in each well was removed, and the cells were fixed by being left to stand in […] Mildform for 10 minutes, followed by three times of washing with pure water. Thereafter, 50 μL of TRAP staining solution (SIGMA) was added to each well, and the plate was incubated in a shaded state for 1 hour at 37° C. The TRAP staining solution in each well was discarded, and the well was washed with pure water, followed by adding 50 μL of Mayer's hematoxylin solution thereto. The plated was left to stand for 2 minutes to perform nuclear staining. The plate was washed 10 times with pure water, and then dried for one or more days. The total number of multinucleated osteoclasts having three or more nuclei present on each well was counted. The stained image was scanned using a scanner (EPSON, GT-X970, 800 pixels/inch), and the stained area was measured using image analysis software Image J.
The same operation as in Example 1 was carried out except that urolithin A was not added.
The ratio of the stained area in each sample-addition group (Example 1) to the stained area in the sample-free group (Comparative Example 1) was calculated to determine the number of osteoclasts (relative value). […] The conditions marked with “*” in Table 2 and FIG. 1 are the conditions under which the significant differences were found compared to Comparative Example 1.
The same operation as in Example 1 was carried out except that urolithin B was used instead of urolithin A, and that urolithin B was added at 25 or 50 μM.
The same operation as in Example 1 was carried out except that urolithin B was not added.
The ratio of the stained area in each sample-addition group (Example 2) to the stained area in the sample-free group (Comparative Example 2) was calculated to determine the number of osteoclasts (relative value). […] The condition marked with “*” in Table 3 and FIG. 2 is the condition under which the significant difference was found compared to Comparative Example 2.

O=c1oc2cc(O)ccc2c2ccc(O)cc12 [Urolithin A]
number of osteoclasts (relative value) [1]: 50% ± 5% (*)
number of osteoclasts (relative value) ([2]; 1 μM): 88% ± 9%
number of osteoclasts (relative value) ([2]; 10 μM): 49% ± 6% (*)
Osteoclast differentiation (significance vs Comparative Example) ([2]; 10 μM): significantly inhibited
number of osteoclasts (relative value) ([2]; 25 μM): 26% ± 4% (*)
Osteoclast differentiation (significance vs Comparative Example) ([2]; 25 μM): significantly inhibited

O=c1oc2cc(O)ccc2c2ccccc12 [Urolithin B]
number of osteoclasts (relative value) ([2]; 25 μM): 87% ± 13%
number of osteoclasts (relative value) ([2]; 50 μM): 40% ± 5% (*)
